Reference: patent US20090149531A1, “CHEMICAL COMPOSITION DERIVED FROM P-HYDROXYPHENYL PROPIONIC ACID FOR THE TREATMENT OF PSORIASIS” (APOTEKNOS PARA LA PIEL, S.L., priority 2007, published 2009)
Several values for one entry are separate records, joined by “and”; a condition that tells them apart may be missing. Equal entries are not always repeated.

Legend:
[1] = tested on: Salmonella typhimurium TA100; assay: Ames test without external metabolisation, TA100; type: cell-based; details: no metabolic activation; for Colonies per plate: individual plates 1-4, A; for Colonies per plate / Colonies per plate, Mean: 48 hours; for Mutagenic Ind,: relative to H+/B+
Method: The mutagenic activity of compound A was evaluated using the Ames test without external metabolisation. The Ames test is based on the use of bacterial strains to detect mutations in the DNA in vitro using bacterial strains that make it possible to detect types of damage to the genome.
Bacteria of 4 strains of Salmonella typhimurium that are internationally recommended for this test, TA1535, TA1537, TA98 and TA100, were used. The test was carried out according to highly standardised protocols. […] The test was carried out without external metabolic activation. The plates were incubated at 37° C. and the reverting colonies were counted after 48 hours.

[2] = Signs of toxicity and deaths in the hairless rat study; type: in vivo; details: compound A at 1%, topical
Method: A Control Group was included, administered only with the vehicle (absolute ethanol).
The treatments were administered topically, once a day for 10 days (100 μg/side/animal). The animals were weighed on a daily basis throughout the study and the grade of erythema was evaluated (0=Absence of erythema, 1=Low grade erythema, 3=High grade erythema). On the last day of the study, day 11, the amount of corneous material extracted from the epidermis of the animals was evaluated.

C=C1C(=O)O[C@H](CCc2ccc(OC)cc2)[C@@H]1C [Compound A]
Colonies per plate ([1]; Comp. A 10 μg/ml): 38 and 41 and 44 and 54
Colonies per plate, Mean ([1]; Comp. A 10 μg/ml): 44.25
Mutagenic Ind, ([1]; Comp. A 10 μg/ml): 0.9124
Colonies per plate ([1]; Comp. A 100 μg/ml): 45 and 35 and 31 and 51
Colonies per plate, Mean ([1]; Comp. A 100 μg/ml): 40.5
Mutagenic Ind, ([1]; Comp. A 100 μg/ml): 0.8351
Colonies per plate ([1]; Comp. A 1 mg/ml): 52 and 37 and 38 and 40
Colonies per plate, Mean ([1]; Comp. A 1 mg/ml): 44
Mutagenic Ind, ([1]; Comp. A 1 mg/ml): 0.9072
Ames test result (mutagenic effects) ([1]; TA100, concentrations evaluated 10 μg/ml to 1 mg/ml): negative
signs of toxicity [2]: none of the animals presented signs of toxicity
